Measured values published in PubChem BioAssay (NCI).
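Protocol summary: plate cells (96-well), add compound at 5 concentrations, incubate 48 h, interpolate endpoints linearly. GI50 marks 50% less growth. TGI: total growth inhibition.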

Legend:
Assay in all cases: DTP human tumour cell line panel, 48 h
[1] = system: NCI/ADR-RES ovarian
[2] = system: OVCAR-5 ovarian
[3] = system: UACC-257 melanoma
[4] = system: BT-549 breast
[5] = system: A498 renal
[6] = system: NCI-H23 lung
[7] = system: A549 NSCLC
[8] = system: SNB-75 CNS
[9] = system: SW-620 colon
[10] = system: MCF7 breast
[11] = system: SNB-19 CNS
[12] = system: T-47D breast
[13] = system: HCT-116 colon
[14] = system: LOX IMVI melanoma
[15] = system: HL-60(TB) leukemia
[16] = system: M14 melanoma
[17] = system: SR leukemia
[18] = system: 786-0 renal
[19] = system: TK-10 renal
[20] = system: RPMI-8226 leukemia
[21] = system: HT29 colon
[22] = system: KM12 colon
[23] = system: RXF 393 renal
[24] = system: CAKI-1 renal
[25] = system: OVCAR-3 ovarian
[26] = system: MDA-MB-435
[27] = system: UACC-62 melanoma
[28] = system: SK-MEL-28 melanoma
[29] = system: NCI-H522 lung
[30] = system: SF-268 CNS
[31] = system: MDA-MB-231 breast
[32] = system: K-562 leukemia
[33] = system: OVCAR-8 ovarian
[34] = system: U251 CNS
[35] = system: SF-295 CNS
[36] = system: HCT-15 colon
[37] = system: CCRF-CEM leukemia
[38] = system: SN12C renal
[39] = system: UO-31 renal
[40] = system: HS 578T breast
[41] = system: EKVX NSCLC
[42] = system: ACHN renal
[43] = system: PC-3 prostate
[44] = system: HCC-2998 colon
[45] = system: COLO 205 colon
[46] = system: NCI-H460 lung
[47] = system: MOLT-4 leukemia
[48] = system: SK-MEL-5 melanoma
[49] = system: HOP-62 NSCLC
[50] = system: SF-539 CNS
[51] = system: DU-145 prostate
[52] = system: OVCAR-4 ovarian
[53] = system: HOP-92 NSCLC
[54] = system: NCI-H226 lung
[55] = system: SK-OV-3 ovarian
[56] = system: MALME-3M melanoma

SMILES: COc1ccc2c(c1)[n+]([O-])c(C#N)c(NC(=O)c1cccs1)[n+]2[O-]
- GI50 [1]: > 100 µM
- TGI [1]: > 100 µM
- GI50 [2]: > 100 µM
- TGI [2]: > 100 µM
- GI50 [3]: > 100 µM
- TGI [3]: > 100 µM
- GI50 [4]: > 100 µM
- TGI [4]: > 100 µM
- GI50 [5]: > 100 µM
- TGI [5]: > 100 µM
- GI50 [6]: > 100 µM
- TGI [6]: > 100 µM
- GI50 [7]: > 100 µM
- TGI [7]: > 100 µM
- GI50 [8]: > 100 µM
- TGI [8]: > 100 µM
- GI50 [9]: > 100 µM
- TGI [9]: > 100 µM
- GI50 [10]: > 100 µM
- TGI [10]: > 100 µM
- GI50 [11]: > 100 µM
- TGI [11]: > 100 µM
- GI50 [12]: > 100 µM
- TGI [12]: > 100 µM
- GI50 [13]: > 100 µM
- TGI [13]: > 100 µM
- GI50 [14]: > 100 µM
- TGI [14]: > 100 µM
- GI50 [15]: > 100 µM
- TGI [15]: > 100 µM
- GI50 [16]: > 100 µM
- TGI [16]: > 100 µM
- GI50 [17]: > 100 µM
- TGI [17]: > 100 µM
- GI50 [18]: > 100 µM
- TGI [18]: > 100 µM
- GI50 [19]: > 100 µM
- TGI [19]: > 100 µM
- GI50 [20]: > 100 µM
- TGI [20]: > 100 µM
- GI50 [21]: > 100 µM
- TGI [21]: > 100 µM
- GI50 [22]: > 100 µM
- TGI [22]: > 100 µM
- GI50 [23]: > 100 µM
- TGI [23]: > 100 µM
- GI50 [24]: > 100 µM
- TGI [24]: > 100 µM
- GI50 [25]: > 100 µM
- TGI [25]: > 100 µM
- GI50 [26]: > 100 µM
- TGI [26]: > 100 µM
- GI50 [27]: > 100 µM
- TGI [27]: > 100 µM
- GI50 [28]: > 100 µM
- TGI [28]: > 100 µM
- GI50 [29]: > 100 µM
- TGI [29]: > 100 µM
- GI50 [30]: > 100 µM
- TGI [30]: > 100 µM
- GI50 [31]: > 100 µM
- TGI [31]: > 100 µM
- GI50 [32]: > 100 µM
- TGI [32]: > 100 µM
- GI50 [33]: > 100 µM
- TGI [33]: > 100 µM
- GI50 [34]: > 100 µM
- TGI [34]: > 100 µM
- GI50 [35]: > 100 µM
- TGI [35]: > 100 µM
- GI50 [36]: > 100 µM
- TGI [36]: > 100 µM
- GI50 [37]: > 100 µM
- TGI [37]: > 100 µM
- GI50 [38]: > 100 µM
- TGI [38]: > 100 µM
- GI50 [39]: > 100 µM
- TGI [39]: > 100 µM
- GI50 [40]: > 100 µM
- TGI [40]: > 100 µM
- GI50 [41]: > 100 µM
- TGI [41]: > 100 µM
- GI50 [42]: > 100 µM
- TGI [42]: > 100 µM
- GI50 [43]: > 100 µM
- TGI [43]: > 100 µM
- GI50 [44]: > 100 µM
- TGI [44]: > 100 µM
- GI50 [45]: > 100 µM
- TGI [45]: > 100 µM
- GI50 [46]: > 100 µM
- TGI [46]: > 100 µM
- GI50 [47]: > 100 µM
- TGI [47]: > 100 µM
- GI50 [48]: > 100 µM
- TGI [48]: > 100 µM
- GI50 [49]: > 100 µM
- TGI [49]: > 100 µM
- GI50 [50]: > 100 µM
- TGI [50]: > 100 µM
- GI50 [51]: > 100 µM
- TGI [51]: > 100 µM
- GI50 [52]: > 100 µM
- TGI [52]: > 100 µM
- GI50 [53]: > 100 µM
- TGI [53]: > 100 µM
- GI50 [54]: > 100 µM
- TGI [54]: > 100 µM
- GI50 [55]: > 100 µM
- TGI [55]: > 100 µM
- GI50 [56]: > 100 µM
- TGI [56]: > 100 µM
